Experimental findings from patent US20240043386A1, “Modulators of the Cystic Fibrosis Transmembrane Conductance Regulator Protein and Methods of Use” (AbbVie Global Enterprises Ltd., priority 2021, published 2024) are described below.

The EC50 is the concentration needed to bring the measured effect to its halfway point.

One assay has as its target T1, F508del/F508del CFTR (Homo sapiens, UniProt P13569, DEL508-508).
T1 construct: cells isolated from CF patients with the homozygous mutation; endogenous in cells; host or cells: primary human bronchial epithelial (hBE) cells from CF patients homozygous for F508del
Put plainly: Trans-Epithelial Current Clamp (TECC) assay using primary human bronchial epithelial cells. The assay is classed as cell-based. The conditions noted are these: for Emax (% Dual): maximum percent activity relative to positive control (co-corrector 0.15 μM + potentiator 0.45 μM = 100%), primary hBE cells F508del/F508del; for EC50: primary hBE cells homozygous F508del/F508del, test C2 corrector with co-corrector and potentiator, 18-24 hours at 37° C., equivalent CFTR current (IEQ)/AUC. Summed up: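 F508del/F508del primary hBE cells grown 35 days at air-liquid interface were treated basolaterally with C2 correctors plus fixed co-corrector and potentiator for 18-24 h at 37° C. TECC-24 current clamp at 36.5° C in HEPES-buffered F-12 Coon's, pH 7.4; equivalent current IEQ=VT/RT, plus AUC between forskolin peak and bumetanide.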

The next assay addresses T2, F508delCFTR (Homo sapiens, UniProt P13569, DEL508-508).
T2 construct: expressed in transfected cells; host or cells: CFBE41o- human lung-derived epithelial cell line, doxycycline-inducible expression
The assay can be described thus: Cell Surface Expression-Horse Radish Peroxidase (CSE-HRP) assay in CFBE41o-F508delCFTR-HRP cells. The assay is classed as cell-based. The conditions noted are these: for EC50: CFBE41o-F508delCFTR-HRP cells, 18-24 hours at 33° C., luminescence; for Maximum % activity (without co-corrector) / Maximum % activity (with co-corrector): normalized to on-plate positive control corrector (2 μM). The procedure, abridged:
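CFBE41o- cells expressing F508delCFTR with HRP in the fourth exofacial loop were doxycycline-induced (0.5 μg/mL) for 68–72 h, then exposed to correctors for 18–24 h at 33 °C, with or without 2 μM co-corrector. Surface HRP was read by luminol luminescence, and % activity was normalized to the on-plate positive control; EC50 came from a variable-slope sigmoidal fit (8 points, 3-fold dilution, 20 or 30 μM top).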

[1] abbreviates: with co-corrector (2 μM), read-out: EC50 (with co-corrector).
Where [2] appears, read: without co-corrector, read-out: EC50 (without co-corrector).

Where two headings read alike, the source gives them in different places.

T2 sequence (P13569 with tags, fused parts or gaps DEL508-508): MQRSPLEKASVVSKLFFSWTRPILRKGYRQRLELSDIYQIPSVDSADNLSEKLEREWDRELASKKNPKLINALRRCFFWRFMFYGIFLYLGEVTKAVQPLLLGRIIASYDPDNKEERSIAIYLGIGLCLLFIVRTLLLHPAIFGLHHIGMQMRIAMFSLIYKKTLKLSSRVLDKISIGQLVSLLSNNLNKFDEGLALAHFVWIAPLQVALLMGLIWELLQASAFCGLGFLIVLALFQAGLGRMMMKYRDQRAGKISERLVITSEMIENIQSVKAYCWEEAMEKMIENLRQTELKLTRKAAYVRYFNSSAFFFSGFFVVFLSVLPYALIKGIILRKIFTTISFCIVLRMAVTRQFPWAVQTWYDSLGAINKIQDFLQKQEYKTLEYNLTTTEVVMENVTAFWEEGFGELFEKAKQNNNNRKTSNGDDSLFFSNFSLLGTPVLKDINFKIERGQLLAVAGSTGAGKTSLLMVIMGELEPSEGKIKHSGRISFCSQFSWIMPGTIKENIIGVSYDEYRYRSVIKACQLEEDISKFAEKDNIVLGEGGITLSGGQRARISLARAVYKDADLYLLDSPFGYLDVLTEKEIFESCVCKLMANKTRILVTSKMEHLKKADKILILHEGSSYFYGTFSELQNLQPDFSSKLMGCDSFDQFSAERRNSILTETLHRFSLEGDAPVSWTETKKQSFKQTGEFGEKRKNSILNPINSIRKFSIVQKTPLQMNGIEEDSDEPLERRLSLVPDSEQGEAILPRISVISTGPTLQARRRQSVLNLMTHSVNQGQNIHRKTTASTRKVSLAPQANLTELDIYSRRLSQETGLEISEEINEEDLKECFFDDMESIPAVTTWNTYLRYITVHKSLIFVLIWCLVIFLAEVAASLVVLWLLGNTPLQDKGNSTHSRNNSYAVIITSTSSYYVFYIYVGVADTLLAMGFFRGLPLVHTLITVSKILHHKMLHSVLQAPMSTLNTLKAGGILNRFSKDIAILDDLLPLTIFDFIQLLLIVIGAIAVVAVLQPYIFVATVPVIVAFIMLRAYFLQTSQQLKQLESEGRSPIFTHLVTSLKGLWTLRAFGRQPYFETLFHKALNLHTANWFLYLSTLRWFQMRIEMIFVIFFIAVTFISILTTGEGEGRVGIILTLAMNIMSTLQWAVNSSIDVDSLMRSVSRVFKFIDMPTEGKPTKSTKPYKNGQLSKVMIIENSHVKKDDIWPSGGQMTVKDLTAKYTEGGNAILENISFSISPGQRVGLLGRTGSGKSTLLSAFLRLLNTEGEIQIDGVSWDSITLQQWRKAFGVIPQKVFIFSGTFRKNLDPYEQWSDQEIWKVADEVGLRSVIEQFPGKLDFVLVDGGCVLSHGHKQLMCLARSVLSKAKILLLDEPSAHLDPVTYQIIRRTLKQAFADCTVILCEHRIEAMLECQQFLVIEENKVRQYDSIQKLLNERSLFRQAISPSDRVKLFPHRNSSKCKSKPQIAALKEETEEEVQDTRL
T1 sequence (P13569 with tags, fused parts or gaps DEL508-508): as above

Take `COc1ccc(C)cc1[C@@]1(C(=O)NS(=O)(=O)c2cccc3nc(C)ccc23)C[C@H]1c1cccc(F)c1` (single isomer, unassigned) [Example 20]: the “Emax (% Dual)” value at F508del/F508del CFTR is given as 250 % Dual. Also, the EC50 is 1 nM at F508del/F508del CFTR, 203 nM at F508delCFTR (setting [1]) and 244 nM on F508delCFTR (setting [2]). Moreover, the “Maximum % activity (without co-corrector)” value on F508delCFTR (without co-corrector, 2 µM) amounted to 716%.

Regarding `COc1ccc(C)cc1[C@@]1(C(=O)NS(=O)(=O)c2cccc3nc(C)ccc23)C[C@H]1c1cccc(F)c1` (single isomer, unassigned) [Example 21], the “Emax (% Dual)” value on F508del/F508del CFTR amounted to 213 % Dual. The EC50 on F508del/F508del CFTR is 2 nM; on F508delCFTR (setting [1]), 506 nM; on F508delCFTR (setting [2]), 1090 nM.

On to `COc1ccc(C)cc1[C@]1(C(=O)NS(=O)(=O)c2cccc3nc(C)ccc23)C[C@@H]1c1cccc(C(F)(F)F)c1` (single isomer, unassigned) [Example 23], for which the “Emax (% Dual)” value on F508del/F508del CFTR was found to be 294 % Dual. The results for the EC50 at F508del/F508del CFTR, on F508delCFTR (setting [1]) and at F508delCFTR (setting [2]) were 6.2 nM, 259 nM and 327 nM, respectively.

Consider `COc1ccc(C)cc1[C@@]1(C(=O)NS(=O)(=O)c2cccc3nc(C)ccc23)C[C@H]1c1cccc(C(F)(F)F)c1` (single isomer, unassigned) [Example 24], for which the “Emax (% Dual)” value on F508del/F508del CFTR is recorded as 286 % Dual. In addition, the EC50 stood at 2 nM at F508del/F508del CFTR, 201 nM at F508delCFTR (setting [1]) and 583 nM on F508delCFTR (setting [2]).

In the case of `COc1ccc(C)cc1[C@]1(C(=O)NS(=O)(=O)c2cccc3nc(C)ccc23)C[C@@H]1c1ccccc1F` (single isomer, unassigned) [Example 25], the “Emax (% Dual)” value at F508del/F508del CFTR is 305 % Dual. In addition, the EC50 was 4.3 nM at F508del/F508del CFTR, 388 nM on F508delCFTR (setting [1]) and 1010 nM at F508delCFTR (setting [2]).

As to `COc1ccc(C)cc1[C@@]1(C(=O)NS(=O)(=O)c2cccc3nc(C)ccc23)C[C@H]1c1ccccc1F` (single isomer, unassigned) [Example 26], the “Emax (% Dual)” value at F508del/F508del CFTR stood at 293 % Dual. Moreover, the EC50 on F508del/F508del CFTR was 2.8 nM; at F508delCFTR (setting [1]), 337 nM; on F508delCFTR (setting [2]) it was 368 nM. The “Maximum % activity (without co-corrector)” value on F508delCFTR (without co-corrector) came out at 515%.

On to `COc1cccc([C@@H]2C[C@]2(C(=O)NS(=O)(=O)c2cccc3nc(C)ccc23)c2cc(C)ccc2OC)c1` (single isomer, unassigned) [Example 27], for which the “Emax (% Dual)” value at F508del/F508del CFTR worked out at 275 % Dual. Moreover, the EC50 turned out to be 15.7 nM at F508del/F508del CFTR, 429 nM at F508delCFTR (setting [1]) and 405 nM at F508delCFTR (setting [2]). Besides, at F508delCFTR (without co-corrector), the “Maximum % activity (without co-corrector)” value came to 465%.

Regarding `COc1cccc([C@H]2C[C@@]2(C(=O)NS(=O)(=O)c2cccc3nc(C)ccc23)c2cc(C)ccc2OC)c1` (single isomer, unassigned) [Example 28], the “Emax (% Dual)” value on F508del/F508del CFTR stood at 304 % Dual. Further, the EC50 at F508del/F508del CFTR was 2.6 nM; at F508delCFTR (setting [1]), 417 nM; on F508delCFTR (setting [2]), 951 nM.

In the case of `COc1ccc(C)cc1[C@]1(C(=O)NS(=O)(=O)c2cccc3nc(C)ccc23)C[C@@H]1c1ccccc1C(F)(F)F` (single isomer, unassigned) [Example 30], the “Emax (% Dual)” value on F508del/F508del CFTR turned out to be 313 % Dual. Also, the values for the EC50 at F508del/F508del CFTR, at F508delCFTR (setting [1]) and on F508delCFTR (setting [2]) were 46.6 nM, 260 nM and 263 nM, respectively. Moreover, the “Maximum % activity (without co-corrector)” value at F508delCFTR (without co-corrector) worked out at 589%.

On to `COc1ccc(C)cc1[C@@]1(C(=O)NS(=O)(=O)c2cccc3nc(C)ccc23)C[C@H]1c1ccccc1C(F)(F)F` (single isomer, unassigned) [Example 31], for which the “Emax (% Dual)” value at F508del/F508del CFTR was found to be 307 % Dual. In addition, the EC50 at F508del/F508del CFTR was 6.2 nM; on F508delCFTR (setting [1]), 163 nM; at F508delCFTR (setting [2]), 239 nM. The “Maximum % activity (without co-corrector)” value at F508delCFTR (without co-corrector) worked out at 776%.

As to `COc1ncc([C@@H]2C[C@]2(C(=O)NS(=O)(=O)c2cccc3nc(C)ccc23)c2cc(C)ccc2OC)cn1` (single isomer, unassigned) [Example 37], the “Emax (% Dual)” value on F508del/F508del CFTR turned out to be 152 % Dual. Also, the EC50 was 42 nM on F508del/F508del CFTR, 3680 nM on F508delCFTR (setting [1]) and 7260 nM at F508delCFTR (setting [2]). For the same compound, the “Maximum % activity (with co-corrector)” value on F508delCFTR (with co-corrector (2 μM)) is reported as 460%. For the same compound, the “Maximum % activity (without co-corrector)” value at F508delCFTR (without co-corrector) came out at 113%.

Consider `COc1ncc([C@H]2C[C@@]2(C(=O)NS(=O)(=O)c2cccc3nc(C)ccc23)c2cc(C)ccc2OC)cn1` (single isomer, unassigned) [Example 38], for which the “Emax (% Dual)” value at F508del/F508del CFTR turned out to be 202 % Dual. Besides, the values for the EC50 at F508del/F508del CFTR, at F508delCFTR (setting [1]) and on F508delCFTR (setting [2]) were 219 nM, 1810 nM and 3020 nM, respectively. For the same compound, the “Maximum % activity (with co-corrector)” value on F508delCFTR (with co-corrector (2 μM)) is given as 995%. At F508delCFTR (without co-corrector), the “Maximum % activity (without co-corrector)” value is 419%.

As for `COc1ccc(C)cc1[C@@]1(C(=O)NS(=O)(=O)c2cccc3nc(C)ccc23)C[C@H]1c1cncc(C)n1` (single isomer, unassigned) [Example 45], the “Emax (% Dual)” value at F508del/F508del CFTR was determined as 179 % Dual. The EC50 at F508del/F508del CFTR is greater than 300 nM; on F508delCFTR (setting [1]) it was 4620 nM; on F508delCFTR (setting [2]), 6150 nM. For the same compound, the “Maximum % activity (with co-corrector)” value on F508delCFTR (with co-corrector (2 μM)) stood at 427%. In addition, at F508delCFTR (without co-corrector), the “Maximum % activity (without co-corrector)” value turned out to be 128%.

For `COc1ccc(C)cc1[C@]1(C(=O)NS(=O)(=O)c2cccc3nc(C)ccc23)C[C@@H]1c1cncc(C)n1` (single isomer, unassigned) [Example 46], the “Emax (% Dual)” value at F508del/F508del CFTR worked out at 364 % Dual. Besides, the concentration giving a half-maximal response (EC50) on F508del/F508del CFTR was found to be 30.1 nM; at F508delCFTR (setting [1]) it was 1520 nM; on F508delCFTR (setting [2]) it was 2350 nM. Besides, at F508delCFTR (without co-corrector), the “Maximum % activity (without co-corrector)” value is listed as 783%.

On to `COc1cnc([C@@H]2C[C@]2(C(=O)NS(=O)(=O)c2cccc3nc(C)ccc23)c2cc(C)ccc2OC)cn1` (single isomer, unassigned) [Example 47], for which the “Emax (% Dual)” value at F508del/F508del CFTR was 247 % Dual. The EC50 at F508del/F508del CFTR amounted to 85.2 nM; on F508delCFTR (setting [1]), 1280 nM; on F508delCFTR (setting [2]) it was 2210 nM. Also, on F508delCFTR (with co-corrector (2 μM)), the “Maximum % activity (with co-corrector)” value was 775%. Besides, the “Maximum % activity (without co-corrector)” value on F508delCFTR (without co-corrector) was determined as 322%.

Regarding `COc1cnc([C@H]2C[C@@]2(C(=O)NS(=O)(=O)c2cccc3nc(C)ccc23)c2cc(C)ccc2OC)cn1` (single isomer, unassigned) [Example 48], the “Emax (% Dual)” value on F508del/F508del CFTR is given as 401 % Dual. Moreover, the EC50 at F508del/F508del CFTR came out at 47.1 nM; at F508delCFTR (setting [1]) it was 1080 nM; on F508delCFTR (setting [2]), 1780 nM. The “Maximum % activity (without co-corrector)” value on F508delCFTR (without co-corrector) was 790%.

On to `COc1ccc(C)cc1[C@]1(C(=O)NS(=O)(=O)c2cccc3nc(C)ccc23)C[C@@H]1c1cccnc1OC` (single isomer, unassigned) [Example 50], for which the “Emax (% Dual)” value on F508del/F508del CFTR is recorded as 359 % Dual. Further, the EC50 on F508del/F508del CFTR is 5.2 nM; on F508delCFTR (setting [1]), 954 nM; at F508delCFTR (setting [2]) it was 2340 nM. Further, the “Maximum % activity (without co-corrector)” value on F508delCFTR (without co-corrector) is listed as 951%.

Turning to `COc1cncc([C@@H]2C[C@]2(C(=O)NS(=O)(=O)c2cccc3nc(C)ccc23)c2cc(C)ccc2OC)c1` (single isomer, unassigned) [Example 51], the “Emax (% Dual)” value at F508del/F508del CFTR came out at 135 % Dual. For the same compound, the EC50 at F508del/F508del CFTR is greater than 300 nM; at F508delCFTR (setting [1]), 4380 nM; on F508delCFTR (setting [2]), 5440 nM. In addition, the “Maximum % activity (with co-corrector)” value on F508delCFTR (with co-corrector (2 μM)) is given as 406%. At F508delCFTR (without co-corrector), the “Maximum % activity (without co-corrector)” value is 108%.

For `COc1cncc([C@H]2C[C@@]2(C(=O)NS(=O)(=O)c2cccc3nc(C)ccc23)c2cc(C)ccc2OC)c1` (single isomer, unassigned) [Example 52], the “Emax (% Dual)” value at F508del/F508del CFTR was 283 % Dual. Besides, the EC50 amounted to 26.6 nM at F508del/F508del CFTR, 2140 nM on F508delCFTR (setting [1]) and 3320 nM on F508delCFTR (setting [2]). The “Maximum % activity (without co-corrector)” value at F508delCFTR (without co-corrector) stood at 608%.
